Measurements as given in patent US7498421B2, “Degradation fragments” (Medical Research Council, priority 2001, dated 2009).

Experiments:
[1] = tested on: porcine carotid artery rings; assay: Isometric force measurement on porcine carotid artery rings
Procedure: Isometric force measurement were performed on porcine carotid artery rings to assess functional parameters during exposure to various compounds. The methods used were those used by J F Clark et al., J. Vasc. Res., 1995, 32. 24-30. KCl induced contraction is used as maximal isometric tension generation and results are reported as percentage of KCl maxima obtained for each carotid.

[2] = Light sensitivity of purified fractions (sunlight, HPLC / 1H NMR); format: physicochemical; settings: sunlight for 90 min
Procedure: The chloroform extract was dissolved in 50% (v/v) aqueous and purified by HPLC. Experiments were conducted so as to exclude light from samples. Hypersil reversed-phase C18 (250×7 mm) or Spherisorb ODS (2) reversed-phase columns (250×4.6 mm) were equilibrated with 30% (v/v) aqueous acetonitrile at a flow rate pf 2 mL min^−1 and 1 mL min^−1, respectively. Elution was performed using 30% to 36% aqueous acetonitrile linear gradient at the same flow rates over 8 min. Fractions were monitored at 320 nm and collected manually. The fractions were freeze dried and stored at −80° C. for further analyses. Each fraction was re-dissolved in 50% (v/v) aqueous acetonitrile, re-injected and re-purified using the same conditions to remove impurities from other fractions. To investigate the light sensitivity of the compounds, purified fractions were exposed to sunlight for 90 min after dissolving 50% (v/v) aqueous and analysed by HLPC.

porcine carotid artery = assay: Oxygen consumption of porcine carotid artery rings (Clark oxygen electrode); settings: concentration of 4-methyl-3-vinylmaleimide not determined
Procedure: Porcine carotid artery were collected from an abattoir within 30 minutes of death, rinsed and immersed in PSS at 4° C., and immediately transported to the laboratory. Arteries were then trimmed of excess connective tissue and adventitia to be stored in PSS at 4° C. until use. The PSS was changed every 12 hours and the vessels were kept for up to 4 days. The PSS contained the following: 118 mmol/L sodium chloride, 25 mmol/L sodium hydrogen carbonate, 5.76 mmol/L potassium chloride, 2.5 mmol/L calcium chloride, 1.2 mmol/L magnesium sulphate, 0.5 mmol/L monobasic sodium phosphate, and 11.1 mmol/L glucose. The solution was oxygenated by bubbling with 95% oxygen and 5% carbon dioxide to maintain a pH of 7.4.
The rate of the oxygen consumption was determined using a Hansatech Instruments (Norfolk, United Kingdom) Clark oxygen electrode. Carotid artery rings approximately 0.2 cm long were vigorously rubbed to remove the endothelial cells and were added to the water-jacketed chambers containing PSS at 37° C. The rates of oxygen consumption were measured before and after the addition of crude mixture of the BR oxidative degradation products (final concentration 1 mg/mL of PSS), CSFSAH (final dilution 1/30) or 4-methyl-3-vinylmaleimide (purified on HPLC, freeze-dried and then re-dissolved in PSS). […]

[3] = Heat stability judged by HPLC; settings: 60° C. for 2 h

Row | Structure (SMILES) | effect of pre-treatment on tension development induced by ox-BR and CSF-SAH [1] | 1H NMR analysis after sunlight exposure [2] | intensity of HPLC peaks after exposure to sunlight [2] | stimulation of oxygen consumption (in words) (porcine carotid artery) | heat stability [3]
1 | CC(CCc1ccc(O)cc1)NCCc1ccc(O)c(O)c1 (centres unmarked) [dobutamine] | abrogated | – | – | – | –
2 | C=CC1=C(C)C(=CC(N)=O)NC1=O [Box B, 3-methyl-5-oxo-4-vinyl-(1,5-dihydropyrrol-2-ylidene)acetamide] | – | degradation to a number of products | significantly decreased | – | –
3 | C=CC1=C(C)C(=O)NC1=O [4-methyl-3-vinylmaleimide] | – | – | significantly decreased | stimulated oxygen consumption | relatively heat-stable
4 | C=CC1=C(C)C(=O)NC1=CC(N)=O [Box A, 4-methyl-5-oxo-3-vinyl-(1,5-dihydropyrrol-2-ylidene)acetamide] | – | degradation to a number of products | significantly decreased | – | –
